# Results: US20260191861A1, “INFLAMMASOME AND VEGF INHIBITION FOR RETINAL VASCULAR DISEASES” (University of Virginia Patent Foundation, priority 2022, published 2026)
# Test system: participants with diabetic macular edema
# Assay: Systemic and ocular adverse events in the lamivudine versus placebo trial
# Type: in vivo, human
# Source text: If the participant developed high-risk proliferative diabetic retinopathy or had to undergo any ocular surgery during the study period, they would be excluded. Patients were monitored for adverse events by the assessing physician, and new laboratory tests could be performed at the physician's discretion.
# Secondary outcomes included the change in central subfield thickness, the percentage of eyes with an improvement in VALS of 15 or more, the correlation between improvements in visual acuity and central subfield thickness, and systemic and ocular adverse events. Change in central subfield thickness was estimated using mixed-effects models, similar to the VALS analysis. To analyze a VALS improvement of at least 15 letters, logistic regression using generalized estimating equations (GEEs) was specified with an exchangeable correlation matrix. Model-based contrasts were estimated to make pairwise treatment comparisons.
# [1] = ocular adverse event, of 16 eyes
# [2] = systemic adverse event, of 10 subjects
smiles,measurement,setting,value
Nc1ccn([C@@H]2CS[C@H](CO)O2)c(=O)n1 [Lamivudine],Endophthalmitis - (%),[1],(0%)
same,Endophthalmitis - N,[1],0
same,Increase in intraocular pressure ≥10 mm Hg from baseline - (%),[1],(0%)
same,Increase in intraocular pressure ≥10 mm Hg from baseline - N,[1],0
same,Intraocular inflammation* - (%),[1],(0%)
same,Intraocular inflammation* - N,[1],0
same,Retinal detachment - (%),[1],(0%)
same,Retinal detachment - N,[1],0
same,Subconjunctival hemorrhage - (%),[1],(18.8%)
same,Subconjunctival hemorrhage - N,[1],3
same,Traumatic cataract - (%),[1],(0%)
same,Traumatic cataract - N,[1],0
same,Vitreous hemorrhage - (%),[1],(0%)
same,Vitreous hemorrhage - N,[1],0
same,Abdominal pain - (%),[2],(0%)
same,Abdominal pain - N,[2],0
same,Alopecia - (%),[2],(0%)
same,Alopecia - N,[2],0
same,Arthralgia - (%),[2],(0%)
same,Arthralgia - N,[2],0
same,Diarrhea - (%),[2],(10%)
same,Diarrhea - N,[2],1
same,Disphoresis - (%),[2],(10%)
same,Disphoresis - N,[2],1
same,Fatigue - (%),[2],(10%)
same,Fatigue - N,[2],1
same,Headache - (%),[2],(20%)
same,Headache - N,[2],2
same,Myalgia - (%),[2],(0%)
same,Myalgia - N,[2],0
same,Nausea or vomiting - (%),[2],(20%)
same,Nausea or vomiting - N,[2],2
same,Pruritus - (%),[2],(20%)
same,Pruritus - N,[2],2
same,Skin rash - (%),[2],(0%)
same,Skin rash - N,[2],0
same,ocular adverse events,week 4,no ocular adverse events
same,subconjunctival hemorrhage after intravitreous injection,week 8,three
